# According to ChEMBL document CHEMBL3507680, “University of Dundee, Gates Library screen for HepG2 cell viability”:
# Assay: Human HepG2 cell viability assay in 384 well format
# Type: toxicity, cell-based
# Set-up: dose 125 nL, time 70.5 hour; cytotoxicity at 70.5 h: concentration not given beside the values
# Conditions: HepG2 cells, read-out: Inhibition
row,Compound,cytotoxicity at 70.5 h
1,COc1ccc2c(ccn2CCC(=O)/N=c2\[nH]nc(C3CCCO3)s2)c1 (stereo not drawn),-15.5%
2,CNc1cc(CNC(=O)c2ccccc2)nc(-c2ccncc2)n1,11.4%
3,COc1ccc(CNC(=O)N2CCN(CC(O)C3CC3)CC2)cc1 (stereo not drawn),-3%
4,COCCc1noc(CN2CCN(CC(O)c3ccccc3)CC2)n1 (stereo not drawn),-6.23%
5,O=C(NC1CC(=O)N(C2Cc3ccccc3C2)C1)c1cc[n+]([O-])cc1 (stereo not drawn),9.2%
6,CCN1CCCC(c2c(-c3ccccc3)ncn2CCCO)C1 (stereo not drawn),-8.57%
7,Cc1cc(C)n(CC(C)NC(=O)c2cc(C(C)C)on2)n1 (stereo not drawn),-4.49%
8,COC(=O)c1ccc(N2CCN(CCN3CCOCC3)C(C)C2)cc1 (stereo not drawn),-6.62%
9,CC(C)(C)c1noc(CCC(=O)N2CCN(Cc3ccco3)CC2)n1,-0.998%
10,O=C(Nc1cccc(CNCc2ccsc2)c1)C1CC1,7.14%
11,Cc1c(CN2CCCCC2)c(O)n(CCO)c(=O)c1C#N,-2.11%
12,Cc1noc(C)c1C(=O)NCCc1cccs1,0.104%
13,COc1cccc(OCCCc2cc(C#N)ccn2)c1,11%
14,CC(C)CCn1[nH]c(CNc2ccccc2)nc1=O,-10.8%
15,Cn1ccc(C(=O)NCc2ccccc2CN2CCCCC2)cc1=O,-7.11%
16,O=C(NCC1(O)CCOc2ccccc21)Nc1ccccc1 (stereo not drawn),1.09%
17,CC(C)c1nn(C)c(N(C)C)c1CNCc1ccc2c(c1)OCCO2,-5.83%
18,COc1ccc(C(C)N2CCC(C(=O)NC3CC3)CC2)cc1Cl (stereo not drawn),-7.15%
19,CSc1sc(NC(=O)Cc2c(C)nc(C)[nH]c2=O)nc1C,3.66%
20,Cn1ncnc1NS(=O)(=O)c1ccc(F)cc1,-0.583%
21,Cn1ccc(CN2CCCN(c3nccs3)CC2)cc1=O,-1.81%
22,COC(=O)CC(c1ccc(O)c(Cl)c1)c1oc(C)cc(=O)c1O (stereo not drawn),1.45%
23,O=C(Nc1cccn(Cc2ccc(F)cc2)c1=O)c1cnc[nH]1,-3.1%

row,Compound,cytotoxicity at 70.5 h
1,O=C(O)c1cc(S(=O)(=O)Nc2ccccc2)cc2c1OCCO2,4.5%
2,CC(=O)N1CCCn2c(nc(CNS(=O)(=O)C3CC3)cc2=O)C1,-2.61%
3,CS(=O)(=O)N1CCN(c2ccnc(N3CCCC3)n2)CC1,-4.19%
4,O=C(C1CCCC1)N1CC2(CCN(C3COC3)C2)Cc2ccccc21 (stereo not drawn),-10.8%
5,c1cnc(N2CCOCC3(CCCN(CC4CCOCC4)C3)C2)nc1 (stereo not drawn),-1.71%
6,CC(C)(O)CN1CCN(C(=O)c2cccc(CC#N)c2)CC1,1.57%
7,O=C(NCCc1cccnc1)c1nc2c(s1)CCCN2C(=O)C1CC1,-7.13%
8,CCN1C(=O)CCC12CCCN(Cc1nccs1)C2 (stereo not drawn),-13.8%
9,CC(=O)NC1CCCN(C(=O)NCc2ccc(-c3ccn[nH]3)cc2)C1 (stereo not drawn),3.22%
10,CC(C)c1nn(C)c(N(C)C)c1CNCc1ccnn1C,18%
11,O=C(NC1CC1)[C@@H]1C[C@@H]2CCN(Cc3ccoc3)C[C@@H]2O1,-8.25%
12,CN1CCC(N2CCN(C(C(=O)O)c3cccc4c3OCC4)CC2)CC1 (stereo not drawn),2.04%
13,CC(C)OCc1nn(C)c2c1CCN(Cc1ccco1)C2,-7.18%
14,COc1cc(C(C)=O)ccc1SCC(=O)Nc1ccccn1,21.7%
15,Cn1cc(CN2CCc3c(nc(-c4ccccn4)[nH]c3=O)C2)cn1,-23.4%
16,COCCCn1nnc(C2(NC(=O)c3ccccc3)CCCC2)n1,-12.2%
17,CC(=O)N1Cc2ccccc2C[C@H]1C(=O)N(C)CCc1ccccn1,19.3%
18,COc1cc(N2CCc3ncnc(-c4cnn(C)c4)c3CC2)ncn1,-12%
19,CCCNC(=O)c1c(-n2cnnn2)sc2c1CCC2,-10.4%
20,Cn1nc(N2CCCC(C(=O)Nc3nc4ccccc4[nH]3)C2)ccc1=O (stereo not drawn),-10%
21,CC(C)NC(=O)[C@@H]1C[C@H](N)CN1C(=O)c1cc2ccccc2[nH]c1=O,-8.06%
22,Cc1nc(C)c(CC(=O)NCc2cccnc2OC2CCCC2)c(=O)[nH]1,-4.62%
23,Cc1ccccc1CNc1nc(O)cc(C2CC(=O)N(C)C2)n1 (stereo not drawn),-7.17%

row,Compound,cytotoxicity at 70.5 h
1,Cc1csc(N2CCCN(Cc3ccn(C)c(=O)c3)CC2)n1,-3.93%
2,Cc1ccc2nnc(C(=O)NCCCn3cccn3)nc2c1,6.08%
3,FC(F)(F)C1CCCn2c(CNCc3ccco3)nnc21 (stereo not drawn),35.4%
4,O=C(c1ccc(C2CCNC2)cc1)N1CCC(N2CCC(O)CC2)CC1 (stereo not drawn),3.75%
5,Cn1nc2c(cc1=O)CN(c1nc3ccccc3s1)CC2,4.78%
6,Cc1ccc(C(C(=O)N2CCN(C(=O)c3ccc[nH]3)CC2)N(C)C)cc1 (stereo not drawn),-3.84%
7,COc1ccc(CN2C[C@@H]3COC[C@@H](N4CCN(C)CC4)[C@@H]3C2)cc1,0.325%
8,CN(C)C(=O)N1CC2(CCOCC2)c2cc(NC(=O)CCO)ccc21,-0.169%
9,Cc1ccc(S(=O)(=O)N2CCOCC2C(N)=O)c(F)c1 (stereo not drawn),-8.93%
10,O=C(NCCc1nccs1)C1CCCN(Cc2ccco2)C1 (stereo not drawn),-2.53%
11,Cn1nc(CN2CCCC2)c2c1CN(CC1CC1)CC2,2.77%
12,O=C(NC1CC1)C1CCN(c2cccc(C(F)(F)F)n2)CC1,-1.37%
13,CCOc1ccc(C(=O)CCC(=O)N(C)Cc2noc(C)n2)cc1C,-6.08%
14,CS(=O)(=O)N1CCC(N2CCCC2c2ccccn2)CC1 (stereo not drawn),2.33%
15,F[C@@H]1CN(CC2CC2)C[C@@H]1OCc1nc2ncccc2[nH]1,-3.03%
16,O=C(CCCc1ccccn1)N1CCSC2(CCCCC2)C1,18.8%
17,Cc1cccc(CN2CC[C@H]3CO[C@H](CNC(=O)N(C)C)[C@H]3C2)c1,-3.19%
18,COCc1ccccc1C(=O)NCC(O)c1ccccc1F (stereo not drawn),-2.57%
19,CS(=O)(=O)N1CCCCC12CCN(c1nncs1)CC2,-1.19%
20,CCC(O)CN1CCN(C(=O)C2(c3ccc(C)c(OC)c3)CC2)CC1 (stereo not drawn),4.09%
21,CC(NC(=O)CN(C)S(C)(=O)=O)c1ccc(F)cc1 (stereo not drawn),-11.2%
22,CCc1noc(CN(C)CC(c2cccs2)N2CCOCC2)n1 (stereo not drawn),-1.63%
23,CC(C)c1nnc(NC(=O)N2CCCC2c2ccncc2)s1 (stereo not drawn),20%

row,Compound,cytotoxicity at 70.5 h
1,Cn1ccc(C(=O)N2C[C@@H]3CCN(c4cnccn4)C[C@@H]3C2)n1,-9.79%
2,COC1CCN(C(=O)Cn2ccc3ccccc32)CC1,-3.16%
3,CN(CCOCC(F)(F)F)CC1CCN(CCO)CC1,16.2%
4,Cc1ncc(CN2CCOC(c3ccc(-c4cnn(C)c4)cn3)C2)s1 (stereo not drawn),-6.63%
5,CC(C)CN1C(=O)CC[C@H]2CN(C(=O)c3ncc[nH]3)CC[C@H]21,-0.867%
6,Fc1ccc(-c2nccnc2C2CCCNC2)cc1 (stereo not drawn),-3.79%
7,CCOC(=O)c1nnc2ccccc2c1N1CCOC(C)(C)C1,16.1%
8,O=C(c1ccc(Br)o1)N1CCCC(n2cncn2)C1 (stereo not drawn),-3.18%
9,Cc1nc(CN2C[C@@H]3CN(C(=O)c4cnccn4)C[C@@H]3C2=O)cs1,-10.8%
10,COCCN1CCC(NCc2ccc(F)cc2F)C1 (stereo not drawn),5.5%
11,Cc1nc(CN2CCCCC2CCc2ccc(O)cc2)co1 (stereo not drawn),-6.18%
12,c1ccc(CO[C@@H]2C[C@H]3CN(c4ncccn4)CCN3C2)cc1,5.2%
13,Cc1cc(C)n2nc(CC(=O)N[C@H]3C[C@H]4CN(C)CCN4C3)nc2n1,-7.89%
14,Cc1cc(C)n(CC2CCCCN2C(=O)c2ccc3c(c2)OCO3)n1 (stereo not drawn),-2.07%
15,CC(C)[C@H]1COC(=O)N1Cc1noc(-c2ccccc2)n1,-7.59%
16,O=C(NCCNc1cnccn1)N1CC=C(c2ccc(O)cc2)CC1,2.47%
17,CN(Cc1ccc(C#N)cc1)C(=O)c1ccn(C)c(=O)c1,-9.77%
18,COc1cc(CNc2cnn(CC(F)F)c2)ccc1O,26.6%
19,Cc1cc(NC2CCN(Cc3ccccn3)CC2)n2nc(C)c(C)c2n1,0.979%
20,Cc1nc(COC[C@H]2CC[C@H]3[C@H](CCN3C(N)=O)O2)cs1,-1.77%
21,O=C(CCC(=O)c1ccccc1)NC1(C(=O)NCC2CC2)CCCC1,-9.03%
22,Cc1cccc(Cn2nc(C3CCNCC3)n(-c3ccccc3)c2=O)c1,-5.91%
23,Cc1ncc(CN2CCC(c3nc4cc(Cl)ccc4o3)CC2)s1,22.3%

row,Compound,cytotoxicity at 70.5 h
1,O=C(Cc1cccnc1)N1CCC(c2nnc(-c3ccccn3)o2)CC1,25.5%
2,COc1ccc(C(=O)N(c2ccc(OC)c(F)c2)C(C)C)cn1,-2.91%
3,Cn1ncc2c(N3CCC(CC(=O)N4CCCC4)CC3)ncnc21,-4.03%
4,CCc1n[nH]c(C2CN(C(=O)c3ccc4c(c3)CCCC4)CCO2)n1 (stereo not drawn),-8.34%
5,COc1ncnc2c1CCN(Cc1nccs1)CC2,-8.56%
6,Cc1nc(C)n(CC2CN(CCCc3ccccc3)CCO2)n1 (stereo not drawn),-4.71%
7,CCOC(C)C(=O)N1CCN(S(C)(=O)=O)CC1 (stereo not drawn),-112%
8,Cc1cnc2c(c1NCc1ccccn1)c(=O)n(C)c(=O)n2C,-11.2%
9,CC(C)NC(=O)N1CCC(n2ccc(C(F)(F)F)n2)CC1,1.15%
10,Cc1nc(C)c(CC(=O)N2CCC(c3ccn4nccc4n3)CC2)s1,-1.07%
11,CCn1cc(CN2CCC(c3[nH]ncc3S(C)(=O)=O)C2)cn1 (stereo not drawn),0.805%
12,O=C1CCN(C(=O)NCC(c2ccccc2)c2ccccc2)CCN1,-2.48%
13,O=C(CNCC1CCCN1c1cccnn1)NCCc1cccs1 (stereo not drawn),-1.9%
14,Cc1ccc(-c2nc(CN3CCn4c(nnc4C4CC4)C3)no2)cc1,10.2%
15,CN(C(=O)NCc1ccncc1)C1CCN(c2ccccc2)C1=O (stereo not drawn),11.5%
16,CC(C)C(=O)N1CCN(S(C)(=O)=O)CC2(CC(=O)N(C)C2)C1 (stereo not drawn),-7.11%
17,CN(Cc1nnc(C2CC2)n1C)S(=O)(=O)c1ccccc1C#N,-15.5%
18,CC(C)Cc1noc(CN2CCOC(Cn3cncn3)C2)n1 (stereo not drawn),-5.1%
19,Cc1nc(C)n(CCCNC(=O)C(C)n2ccnc2C(C)C)n1 (stereo not drawn),-5.67%
20,CCc1ncc(C(=O)NC(C)(C)CC)s1,-1.24%
21,CC(NCc1ccc(OCC(N)=O)cc1)c1ccc(Cl)c(Cl)c1 (stereo not drawn),-8.72%
